Measured values taken from PMC6444347 (Nature chemistry, 2019).
Changes are numbered by the printed parent chain.

Columns and labels:
PBP4 [1] = target: T1, PBP4 (Staphylococcus aureus, UniProt P72355); test: fluorogenic D,D-transpeptidation assay with Rf470DL, dose-response; format: biochemical
T1 sequence (P72355 25-431): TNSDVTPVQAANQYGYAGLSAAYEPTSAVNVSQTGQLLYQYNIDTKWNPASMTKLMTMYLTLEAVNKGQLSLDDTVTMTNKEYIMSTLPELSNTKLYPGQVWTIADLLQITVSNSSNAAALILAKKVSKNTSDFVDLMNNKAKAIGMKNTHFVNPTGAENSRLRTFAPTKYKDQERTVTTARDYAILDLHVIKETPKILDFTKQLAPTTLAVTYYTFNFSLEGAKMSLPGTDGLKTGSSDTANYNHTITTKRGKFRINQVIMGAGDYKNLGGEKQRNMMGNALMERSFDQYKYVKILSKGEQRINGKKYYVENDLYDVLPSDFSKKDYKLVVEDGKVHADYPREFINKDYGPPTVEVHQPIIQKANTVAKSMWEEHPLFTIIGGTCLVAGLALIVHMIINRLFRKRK

PBP4 [2] = target: T2, PBP4 (Staphylococcus aureus, UniProt A0A0H2WY27); test: Nitrocefin hydrolysis; format: biochemical
T2 sequence (A0A0H2WY27 25-431): T1 sequence (P72355 25-431) with L210H

Structure (SMILES) | IC50 (PBP4 [1]) [nM] | Nitrocefin hydrolysis (β-lactamase activity) competition assay (PBP4 [2])
CO[C@@]1(NC(=O)Cc2cccs2)C(=O)N2C(C(=O)O)=C(COC(N)=O)CS[C@@H]21 [Cefoxitin] | ~2340 | –
O=C(Cc1cccs1)N[C@@H]1C(=O)N2C(C(=O)O)=C(/C=C/c3ccc([N+](=O)[O-])cc3[N+](=O)[O-])CS[C@H]12 [Nitrocefin] | – | in the presence of Cefoxitin or Carbenicillin, Nitrocefin hydrolysis was strongly inhibited
